In brackets after ≈: the same amount, converted by molar mass.
Columns and labels:
Assay in all cases: ≥ marks a high value that may be exact or a test limit, other limits are often not marked, values filed in µg/mL are converted to µM
[1] = system: Bacillus cereus NCLM 2156
[2] = system: Escherichia coli NCLM 2064
[3] = system: Pseudomonas aeruginosa ATCC 10145
[4] = system: Staphylococcus aureus ATCC 25923
Vibrio cholerae PL91 = system: Vibrio cholerae PL91
Escherichia coli D31 = system: Escherichia coli D31
[5] = system: Listeria fleischmannii DSM 24998
Listeria grayi DSM 20601 = system: Listeria grayi DSM 20601
[6] = system: Listeria monocytogenes DSM 20600
[7] = system: Micrococcus luteus DSM 20030
[8] = system: Staphylococcus aureus DSM 2569
[9] = system: Acinetobacter baumannii ATCC 15308
Citrobacter sp. = system: Citrobacter sp.
Enterobacter cloacae = system: Enterobacter cloacae
[10] = system: Escherichia coli ATCC 25922
Klebsiella pneumoniae = system: Klebsiella pneumoniae
[11] = system: Pseudomonas aeruginosa ATCC 15442
Staphylococcus aureus = system: Staphylococcus aureus
Streptococcus pneumoniae = system: Streptococcus pneumoniae
[12] = system: Acinetobacter baumannii CCARM 12035
[13] = system: Acinetobacter baumannii CCARM 12036
[14] = system: Acinetobacter baumannii KCTC 2508
[15] = system: Bacillus subtilis KCTC 3028
[16] = system: Escherichia coli CCARM 1229
[17] = system: Escherichia coli CCARM 1238
[18] = system: Escherichia coli KCTC 1682
[19] = system: Pseudomonas aeruginosa CCARM 2002
[20] = system: Pseudomonas aeruginosa CCARM 2095
[21] = system: Pseudomonas aeruginosa KCTC 1637
[22] = system: Salmonella typhimurium CCARM 8003
[23] = system: Salmonella typhimurium CCARM 8007
[24] = system: Salmonella typhimurium KCTC 1926
[25] = system: Staphylococcus aureus CCARM 3089
[26] = system: Staphylococcus aureus CCARM 3108
[27] = system: Staphylococcus aureus CCARM 3126
[28] = system: Staphylococcus aureus KCTC 1621
[29] = system: Staphylococcus epidermidis KCTC 1917

`CC[C@H](C)[C@H](NC(=O)[C@H](CCCCN)NC(=O)[C@@H](NC(=O)[C@H](CC(C)C)NC(=O)[C@@H]1CCCN1C(=O)CNC(=O)[C@H](Cc1ccccc1)NC(=O)[C@@H](N)Cc1ccccc1)[C@@H](C)CC)C(=O)N[C@@H](C)C(=O)N[C@H](C(=O)NCC(=O)N[C@H](C(=O)N[C@@H](CC(C)C)C(=O)N1CCC[C@H]1C(=O)N[C@@H](CC(N)=O)C(=O)N[C@@H](CC(C)C)C(=O)N[C@H](C(=O)N[C@H]1CSSC[C@@H](C(=O)O)NC(=O)[C@H](CCCCN)NC(=O)CNC(=O)[C@H](CC(C)C)NC(=O)[C@H](C)NC(=O)[C@H](CCCCN)NC1=O)[C@@H](C)CC)C(C)C)[C@@H](C)O` [FFGPLIKIATGVLPNLICKALGKC] showed an MIC [1] of at least 39.7 µM, an MIC [2] of 11.9 µM (≈ 30 µg/mL) and an MIC [3] of at least 59.6 µM. For the same compound, the MIC [4] was over 59.6 µM and the MIC (Vibrio cholerae PL91) was at least 59.6 µM.

For `CC[C@H](C)[C@H](NC(=O)CNC(=O)[C@H](CO)NC(=O)[C@H](CC(C)C)NC(=O)[C@H](CC(C)C)NC(=O)[C@H](C)NC(=O)[C@H](CO)NC(=O)[C@H](Cc1ccccc1)NC(=O)[C@@H](N)Cc1ccccc1)C(=O)N[C@@H](CCCCN)C(=O)N[C@@H](CO)C(=O)N[C@@H](CC(C)C)C(=O)N[C@@H](Cc1ccccc1)C(N)=O` [FFSALLSGIKSLF], the MIC (Escherichia coli D31) was 8 µM (≈ 11.4 µg/mL), the MIC [5] was 4 µM (≈ 5.71 µg/mL) and the MIC (Listeria grayi DSM 20601) was 15 µM (≈ 21.4 µg/mL). For the same compound, the MIC [6] was 8 µM (≈ 11.4 µg/mL), the MIC [7] was 8 µM (≈ 11.4 µg/mL) and the MIC [8] was 15 µM (≈ 21.4 µg/mL).

In the case of `CC[C@H](C)[C@H](NC(=O)[C@H](CC(C)C)NC(=O)CNC(=O)CNC(=O)[C@H](CC(C)C)NC(=O)[C@@H](N)Cc1ccccc1)C(=O)N[C@@H](CCCCN)C(=O)N[C@@H](CCCCN)C(=O)N[C@@H](Cc1c[nH]c2ccccc12)C(=O)N1CCC[C@H]1C(=O)N[C@@H](Cc1c[nH]c2ccccc12)C(=O)N[C@@H](Cc1c[nH]c2ccccc12)C(=O)N1CCC[C@H]1C(=O)N[C@@H](Cc1c[nH]c2ccccc12)C(=O)N[C@@H](CCCN=C(N)N)C(=O)N[C@@H](CCCN=C(N)N)C(N)=O` [FLGGLIKKWPWWPWRR], the MIC [9] is reported as 14.7 µM (≈ 31.2 µg/mL), the MIC (Citrobacter sp.) is reported as at least 118 µM and the MIC (Enterobacter cloacae) is reported as at least 118 µM. It also gave an MIC [10] of 3.67 µM (≈ 7.81 µg/mL), an MIC (Klebsiella pneumoniae) of over 118 µM and an MIC [11] of 14.7 µM (≈ 31.2 µg/mL). For the same compound, the MIC [4] was 3.67 µM (≈ 7.81 µg/mL), the MIC (Staphylococcus aureus) was 3.67 µM (≈ 7.81 µg/mL) and the MIC (Streptococcus pneumoniae) was 3.67 µM (≈ 7.81 µg/mL).

For `CC[C@H](C)[C@H](NC(=O)[C@H](C)NC(=O)[C@H](CCC(=O)O)NC(=O)[C@H](Cc1cnc[nH]1)NC(=O)[C@@H](NC(=O)[C@@H]1CCCN1C(=O)[C@H](CCC(N)=O)NC(=O)[C@H](Cc1ccccc1)NC(=O)[C@@H](NC(=O)[C@H](CCCCN)NC(=O)[C@H](CCCCN)NC(=O)[C@H](CC(C)C)NC(=O)[C@H](C)NC(=O)[C@H](CC(N)=O)NC(=O)[C@H](CC(C)C)NC(=O)CN)C(C)C)[C@@H](C)CC)C(=O)N[C@@H](CCCCN)C(=O)N[C@@H](CCCCN)C(=O)N[C@H](C(=O)N[C@@H](CC(N)=O)C(=O)N[C@@H](CC(N)=O)C(=O)N[C@@H](Cc1cnc[nH]1)C(=O)N[C@H](C(=O)N[C@@H](CCC(N)=O)C(=O)O)C(C)C)[C@@H](C)CC` [GLNALKKVFQPIHEAIKKINNHVQ], the MIC [12] was 16 µM (≈ 43.8 µg/mL), the MIC [13] was 16 µM (≈ 43.8 µg/mL) and the MIC [14] was 16 µM (≈ 43.8 µg/mL). The MIC [15] was at least 64 µM, the MIC [16] was at least 32 µM and the MIC [17] was 16 µM (≈ 43.8 µg/mL). It also gave an MIC [18] of 16 µM (≈ 43.8 µg/mL), an MIC [19] of 16 µM (≈ 43.8 µg/mL) and an MIC [20] of 16 µM (≈ 43.8 µg/mL). For the same compound, the MIC [21] was 8 µM (≈ 21.9 µg/mL), the MIC [22] was 16 µM (≈ 43.8 µg/mL) and the MIC [23] was 16 µM (≈ 43.8 µg/mL). For the same compound, the MIC [24] was 16 µM (≈ 43.8 µg/mL), the MIC [25] was at least 64 µM and the MIC [26] was at least 64 µM. For the same compound, the MIC [27] was at least 64 µM, the MIC [28] was at least 64 µM and the MIC [29] was at least 64 µM.

From DBAASP
